Values of other authors as cited in US20260024626A1, “TOXICITY […], OPERATION METHOD OF TOXICITY […], AND OPERATION PROGRAM OF TOXICITY […]” (FUJIFILM Corporation, priority 2023, published 2026).
Read-outs that look alike come from different tables or passages of the source.

How the values were obtained:
[1] = actual test outcome, as against the positive outcome expected from the assumed metabolic reaction
[2] = With metabolic activation (rat liver extract and coenzyme added)
[3] = Without metabolic activation (no rat liver extract and coenzyme)

Nc1ccccc1O [compound A]
No: Ames test result (toxicity), WP2uvrA, Covalent bonding to DNA (WP2uvrA; [2]) | Ames test result (toxicity), WP2uvrA, Covalent bonding to DNA (WP2uvrA; [3]) | Ames test result (toxicity), TA1537, Intercalation between base pairs (TA1537; [2]) | Ames test result (toxicity), TA1537, Intercalation between base pairs (TA1537; [3]) | Ames test result (toxicity), TA100, Covalent bonding to DNA (TA100; [3]) | Ames test result (toxicity), TA98, Intercalation between base pairs (TA98; [2]) | Ames test result (toxicity), TA98, Intercalation between base pairs (TA98; [3]) | Ames test result (toxicity), TA1535, Covalent bonding to DNA (TA1535; [2]) | Ames test result (toxicity), TA1535, Covalent bonding to DNA (TA1535; [3])
Toxic: Ames test result (toxicity), TA100, Covalent bonding to DNA (TA100; [2])

Nc1ccccc1-c1ccccc1 [compound B]
Toxic: Ames test result (toxicity), TA100, Covalent bonding to DNA (TA100; [2])
No: Ames test result (toxicity), WP2uvrA, Covalent bonding to DNA (WP2uvrA; [2]) | Ames test result (toxicity), WP2uvrA, Covalent bonding to DNA (WP2uvrA; [3]) | Ames test result (toxicity), TA1537, Intercalation between base pairs (TA1537; [2]) | Ames test result (toxicity), TA1537, Intercalation between base pairs (TA1537; [3]) | Ames test result (toxicity), TA100, Covalent bonding to DNA (TA100; [3]) | Ames test result (toxicity), TA98, Intercalation between base pairs (TA98; [2]) | Ames test result (toxicity), TA98, Intercalation between base pairs (TA98; [3]) | Ames test result (toxicity), TA1535, Covalent bonding to DNA (TA1535; [2]) | Ames test result (toxicity), TA1535, Covalent bonding to DNA (TA1535; [3])

Nc1ccccc1Cl [compound C]
No: Ames test result (toxicity), WP2uvrA, Covalent bonding to DNA (WP2uvrA; [2]) | Ames test result (toxicity), WP2uvrA, Covalent bonding to DNA (WP2uvrA; [3]) | Ames test result (toxicity), TA1537, Intercalation between base pairs (TA1537; [2]) | Ames test result (toxicity), TA1537, Intercalation between base pairs (TA1537; [3]) | Ames test result (toxicity), TA100, Covalent bonding to DNA (TA100; [2]) | Ames test result (toxicity), TA100, Covalent bonding to DNA (TA100; [3]) | Ames test result (toxicity), TA98, Intercalation between base pairs (TA98; [2]) | Ames test result (toxicity), TA98, Intercalation between base pairs (TA98; [3]) | Ames test result (toxicity), TA1535, Covalent bonding to DNA (TA1535; [2]) | Ames test result (toxicity), TA1535, Covalent bonding to DNA (TA1535; [3])

monomethylnitrobenzene
negative determination: determination in the in vitro toxicity evaluation test [1]
